Measurements from PMC9769502 (Microbiology Spectrum, 2022).
Like-named read-outs stand apart in the source and are kept apart here. No end group written: not given here.

Legend:
[1] = system: Leishmania donovani axenic amastigotes
Description: We utilized a previously developed high-throughput screening assay using transgenic axenic amastigotes expressing a red fluorescent protein, mCherry. Changes in mCherry fluorescence were normalized to 50 μM miltefosine in order to quantify parasite inhibition ([52]). In total, 5 scaffold 25-mer peptides and 475 synthetic 25-mer peptide variants were screened (Fig. 1). […] The assay was repeated, and the average percent parasite killing was determined.
Axenic amastigotes were differentiated as described previously ([69]).
Axenic amastigotes were differentiated as described previously ([69]); briefly, transgenic L. donovani promastigotes expressing mCherry were differentiated by pH and temperature shifts. Amastigotes were seeded into 96-well plates at 5 × 10^6 cells/mL and incubated for 48 h in the presence of decreasing drug concentrations, starting at 20 μM, along with the appropriate solvent controls. Fluorescence was monitored (587-nm excitation/610-nm emission) over 48 h using a FlexStation 3 benchtop multimode reader (Molecular Devices). […] Thus, changes in mCherry fluorescence were normalized to the 50 μM miltefosine control in order to quantify parasite inhibition. Each assay was performed in triplicate. The IC50 values were calculated by nonlinear regression analysis using GraphPad Prism 9.0 for Windows.

[2] = system: THP-1 macrophages; test: Cytotoxicity against THP-1 macrophages (CellTiter-Blue); type: cell-based, human
Description: THP-1 (human acute monocytic leukemia-derived) host macrophages were cultured in RPMI 1640 supplemented with 10% FCS and a penicillin-streptomycin antibiotic solution (10,000 U/mL penicillin, 10,000 μg/mL streptomycin) at 37°C with 5% CO2. THP-1 cells were incubated with 0.25 μM phorbol 12-myristate […] (PMA) for 48 h to differentiate into mature macrophages. Differentiated macrophages were seeded into 96-well plates at 5 × 10^6 cells/mL and incubated for 48 h in the presence of 20 μM antimicrobial peptides along with the appropriate solvent controls. Cell viability assays were conducted using CellTiter-Blue (Promega), based on resazurin reduction. After the 48-h incubation period, CellTiter-Blue reagent was added to cells for 4 h at 37°C, and fluorescence was measured (555-nm excitation/580-nm emission) using a FlexStation 3 benchtop multimode reader (Molecular Devices). Each assay was performed in triplicate. The CC50 values were calculated by nonlinear regression analysis using GraphPad Prism 9.0 for Windows.

[3] = read-out: Axenic amastigotes Mean IC50 ± SD, L. donovani mCherry axenic amastigotes, 48 h, fluorescence normalized to 50 μM miltefosine, highest concentration 20 μM, mean of three replicates
[4] = read-out: Axenic amastigotes Mean IC50 ± SD

Sequence	IC50 [1, 3]	THP-1 macrophage CC50 [2]	IC50 ([1]; 48 h)	THP-1 macrophage CC50 ([2]; 48 h)	IC50 [1, 4]
AGRQALTLYLKEELRKRWKIAFKAW [Syn-xiamencin-22]	2.21 µM	< 20 µM	–	–	–
AGKETIRQYLKNKIKKKWRKAVIAW [Syn-safencin-51]	6.36 µM	< 20 µM	–	–	–
AWKETIRQYLKNEIKKKWRKAVIAW [Syn-safencin-89]	1.05 µM	< 20 µM	–	–	–
AGKETIRQYLKNEIKKKGRKAWIAW [Syn-safencin-65]	1.01 µM	< 20 µM	–	–	–
AGKETIRQKWKNEIKKKGRKAVIAW [Syn-safencin-39]	0.72 µM	< 20 µM	–	–	–
AGKETIRKYLKNEIKKKGRKAVWAW [Syn-safencin 78]	–	> 20 µM	0.94 ± 0.14 µM	>20 µM	–
AGRQALWLYLKEELRKFGKKARIAW [Syn-xiamencin-45]	–	< 20 µM	–	–	6.13 µM
AGRQALTKYLLEELRKRWKKAFIAW [Syn-xiamencin-20]	0.47 µM	< 20 µM	–	–	–
AGAQRLTKELLEYLRKFWKIARKAW [Syn-xiamencin-23]	1.14 µM	< 20 µM	–	–	–
AWTEKIFQRLKKTIQEGKKIAKRAW [Syn-larvacin-39]	1.43 µM	< 20 µM	–	–	–
AWTEKIFNRLKKTINEGKKIAKRAW [Syn-larvacin-40]	8.35 µM	< 20 µM	–	–	–
AGKKTIRQYLKNKIKKKWRKAVIAW [Syn-safencin-52]	0.58 µM	< 20 µM	–	–	–
AGANRLTKELLEYLRKFWKIARKAW [Syn-xiamencin-24]	1.63 µM	< 20 µM	–	–	–
AGRQALTKYLLEELRKRGKKWFIAW [Syn-xiamencin-36]	–	< 20 µM	–	–	1.52 µM
AGKEKIRQYLKNEIKKKGRKWVIAW [Syn-safencin-61]	3.56 µM	< 20 µM	–	–	–
AWKKTIRQYLKNEIKKKGRKAVIAW [Syn-safencin-18]	7.96 µM	< 20 µM	–	–	–
AGANRLTKELLEYLRKFGKIWRKAW [Syn-xiamencin-40]	–	< 20 µM	–	–	1.31 µM
AGKEKIRQFLKKTIQEKGKRAKIAW [Syn-larvacin-77]	10.3 µM	< 20 µM	–	–	–
AGKEKIRQYLKNEIKKKGRKAVWAW [Syn-safencin 77]	–	> 20 µM	0.39 ± 0.13 µM	>20 µM	–
AGKEKIRKKLKNEIKKKGRKWVIAW [Syn-safencin-64]	0.33 µM	< 20 µM	–	–	–
AGKKTIRQYLKNKIKKKGRKAVWAW [Syn-safencin-76]	16.3 µM	< 20 µM	–	–	–
AGKKTIRQYLKNKIKKKGRKWVIAW [Syn-safencin-60]	1.31 µM	< 20 µM	–	–	–

Sequence	IC50 [1, 3]	THP-1 macrophage CC50 [2]	IC50 ([1]; 48 h)	THP-1 macrophage CC50 ([2]; 48 h)	IC50 [1, 4]
AWKKTIRQYLKNEIKKKWRKAVIAW [Syn-safencin-90]	2.6 µM	< 20 µM	–	–	–
AGAQRLTLYLKEELRKRWKKAFIAW [Syn-xiamencin-18]	0.65 µM	< 20 µM	–	–	–
AWAQRLTKELLEYLRKFGKIARKAW [Syn-xiamencin-31]	4.82 µM	< 20 µM	–	–	–
AGTEKIFQRLKKTIQEGKKIAKRAW [Syn-larvacin-7]	5.61 µM	below 20 μM	–	–	–
AGRQWLTLELKEYLRKRGKKAFIAW [Syn-xiamencin-51]	3.66 µM	< 20 µM	–	–	–
AWKETIRKYLKNEIKKKGRKAVIAW [Syn-safencin-22]	1.18 µM	< 20 µM	–	–	–
WGKETIFQRLKKKIQEKGKRATIAW [Syn-larvacin-11]	0.66 µM	below 20 μM	–	–	–
AGKEKWRKKLKNEIKKKGRKAVIAW [Syn-safencin-32]	4.62 µM	< 20 µM	–	–	–
AGRQALTLELKEYLRKRWKKAFIAW [Syn-xiamencin-19]	2.15 µM	< 20 µM	–	–	–
AGRQWLTLYLKEELRKRGKIAFKAW [Syn-xiamencin-54]	7.79 µM	< 20 µM	–	–	–
AGKETIRQFLKKRIQEKGKRAKIAW [Syn-larvacin-93]	2.46 µM	< 20 µM	–	–	–
AGKETIRQFLKKKIQEKGKIAKRAW [Syn-larvacin-94]	18.2 µM	< 20 µM	–	–	–
WGKETIRKYLKNEIKKKGRKAVIAW [Syn-safencin-14]	0.67 µM	below 20 μM	–	–	–
AGKETIRQFLKKKIQEKGKRATIWW [Syn-larvacin-65]	0.31 µM	< 20 µM	–	–	–
AWKKTIRQYLKNKIKKKWRKAVIAW [Syn-safencin-92]	0.9 µM	< 20 µM	–	–	–
AGKETIRQFLKKKIQEGKKRATIWW [Syn-larvacin-68]	1.31 µM	< 20 µM	–	–	–
AGRQALTLYLKEELRKFGKKWRIAW [Syn-xiamencin-37]	–	< 20 µM	–	–	3.71 µM
AGKETIRWFLKKKIWEGKKRATIAW [Syn-larvacin-52]	1.86 µM	< 20 µM	–	–	–
AGKETIRQFLKKKIQEGKKRATIAW [Syn-larvacin-4]	1.09 µM	below 20 μM	–	–	–
AGTEKIFQRLKKTIQEWKKIAKRAW [Syn-larvacin-47]	1.1 µM	< 20 µM	–	–	–
AGKEKIRQYWKNEIKKKGRKAVIAW [Syn-safencin-37]	5.21 µM	< 20 µM	–	–	–
WGTEKIRQFLKKKIQEKGKRATIAW [Syn-larvacin-10]	0.27 µM	below 20 μM	–	–	–

Sequence	IC50 [1, 3]	THP-1 macrophage CC50 [2]	IC50 ([1]; 48 h)	THP-1 macrophage CC50 ([2]; 48 h)	IC50 [1, 4]
AGRQALTLELKEYLRKRGKKWFIAW [Syn-xiamencin-35]	–	< 20 µM	–	–	–
AGKKTIRQYLKNKWKKKGRKAVIAW [Syn-safencin-44]	0.63 µM	< 20 µM	–	–	–
WGKETIRQKLKNEIKKKGRKAVIAW [Syn-safencin-15]	1.71 µM	below 20 μM	–	–	–
AWKETIFQRLKKKIQEKGKRATIAW [Syn-larvacin 35]	–	> 20 µM	0.63 ± 0.14 µM	>20 µM	–
AGKETIRQYLKNKWKKKGRKAVIAW [Syn-safencin-43]	11.2 µM	< 20 µM	–	–	–
AGKETIRQYLKNEIKKKGRKAVIWW [Syn-safencin-81]	3.15 µM	< 20 µM	–	–	–
AGKETIRQFLKKKIQEWKKRATIAW [Syn-larvacin-44]	0.47 µM	< 20 µM	–	–	–
AGKETIFQRLKKKIQEKGKRATIAW [Syn-larvacin-3]	0.36 µM	below 20 μM	–	–	–
AGKETIRQFLKKTIQEKGKRAKIWW [Syn-larvacin 69]	–	> 20 µM	4.14 ± 0.11 µM	>20 µM	–
AWANRLTKELLEYLRKFGKIARKAW [Syn-xiamencin-32]	0.89 µM	< 20 µM	–	–	–
AGKEKIRKKLKNEIKKKGRKAWIAW [Syn-safencin 72]	–	> 20 µM	12.07 ± 0.09 µM	>20 µM	–
AGAQRLTKELLEYLRKFGKIWRKAW [Syn-xiamencin-39]	–	< 20 µM	–	–	6.81 µM
AWKETIRQFLKKTIQEKGKRAKIAW [Syn-larvacin-37]	0.29 µM	< 20 µM	–	–	–
AGKKTIRQYLKNKIKKKGRKAWIAW [Syn-safencin-68]	0.56 µM	< 20 µM	–	–	–
AGKKTIRQYWKNKIKKKGRKAVIAW [Syn-safencin-36]	1.29 µM	< 20 µM	–	–	–
AGTEKIFQRLKKWIQEGKKIAKRAW [Syn-larvacin-31]	–	< 20 µM	–	–	3.8 µM
AGKETIRQKLKNEIKKKGRKAVIAW [Syn-safencin 7]	–	> 20 µM	0.77 ± 0.08 µM	>20 µM	–
AGKETIFQRLKKKIQEKWKRATIAW [Syn-larvacin-43]	0.22 µM	< 20 µM	–	–	–
AGRQWLTLYLKEELRKRGKKAFIAW [Syn-xiamencin-49]	–	< 20 µM	–	–	9.22 µM
AGKKTIRQYLKNEIKKKGRKAVIWW [Syn-safencin 82]	–	> 20 µM	0.375 ± 0.1 µM	>20 µM	–
AWKETIRQYLKNKIKKKWRKAVIAW [Syn-safencin-91]	0.6 µM	< 20 µM	–	–	–
AGKEWIFQRLKKKIQEKGKRATIAW [Syn-larvacin-19]	0.73 µM	< 20 µM	–	–	–
